Drawing on article PMC5896266, “Development of Matrix Metalloproteinase-2 Inhibitors for Cardioprotection” (Frontiers in Pharmacology, 2018), this text covers IC50, inhibition and EC50 for 18 compounds.

Read-outs that look alike come from different tables or passages of the source.

The term IC50 denotes the point on the concentration scale where inhibition reaches its midpoint. The term EC50 denotes the concentration needed to bring the measured effect to its halfway point.

Assay [1] concerns the target T1, Human MMP-2 catalytic domain (Homo sapiens, UniProt P08253, DEL222-396).
T1 construct: Human MMP-2 catalytic domain (residues 110-221, 397-455); made in house
Description: Fluorometric MMP-2 inhibition assay (MTS), catalytic domain. The assay is classed as biochemical. On the procedure:
In vitro MMP-2 activity was then measured, using a fluorometric assay in a 384 well format. Human MMP-2 catalytic domain (residues 110-221, 397-455) (Feng et al., [2000]) was expressed in E. coli in form of inclusion bodies. The protein was refolded and then purified by means of Ni-NTA affinity and anion exchange chromatography. Inhibition assays were carried out in 50 mM Tris, 5 mM CaCl2, 300 mM NaCl, 20 μM ZnSO4, pH = 7.5 buffer. For inhibition studies the catalytic domain of the enzyme was pre-incubated with varying amount of inhibitor for 30 min. […] After 1 h incubation at 37°C the fluorescence was detected using a Wallac 1420 Victor2 microplate reader at 320 nm/405 nm Ex/Em wavelength. As an alternative substrate we also used 5-FAM-Pro-Leu-Gly-Leu-Dap(QXL™ 520)-Ala-Arg-NH2, where the fluorescence was detected at 485 nm/520 nm. For each inhibitor candidate, the percentage of inhibition was determined in duplicate experiments at six inhibitor concentrations, chosen to observe a 5–95% range of inhibition.
Since hydroxamic acids are reported as the primary zinc-binding motif, we intended to select such a library from the AMRI 200,000 member non-exclusive compound repository as a starting point of our drug discovery efforts. Since only a few compounds were available in the repository as hydroxamic acids and the conversion of acids to hydroxamic acids were not applicable to HT parallel synthesis, we decided first to select free acids from the AMRI's compound collection. […] The selected acids were screened in a fluorescent assay using a recombinant human MMP-2 catalytic fragment and a synthetic peptide substrate. […] The hydroxamic acid pairs of the previously measured acids were then tested.

For assay [2], the target named is T2, MMP-1 (Homo sapiens, UniProt P03956).
T2 sequence (P03956 100-469): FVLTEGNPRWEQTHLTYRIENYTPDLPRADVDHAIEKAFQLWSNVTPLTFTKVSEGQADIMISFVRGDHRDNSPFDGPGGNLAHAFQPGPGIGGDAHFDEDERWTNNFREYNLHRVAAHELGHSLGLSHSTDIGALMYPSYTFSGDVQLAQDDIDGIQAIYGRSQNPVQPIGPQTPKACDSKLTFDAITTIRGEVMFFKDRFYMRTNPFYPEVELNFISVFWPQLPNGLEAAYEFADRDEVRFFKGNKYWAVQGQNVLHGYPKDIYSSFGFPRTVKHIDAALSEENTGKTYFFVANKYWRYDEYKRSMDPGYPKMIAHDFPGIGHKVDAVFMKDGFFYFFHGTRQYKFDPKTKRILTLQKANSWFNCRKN
As to the kind of experiment: MMP-1 inhibition (inhibitory profile). The assay is classed as biochemical. The conditions noted are these: Table 2. On the procedure:
(§1) The compounds were measured for MMP-1, 2, 9, 13 to determine their inhibitory profile. Efficiency Index amplifies the two major required effects, selectivity against MMP-1 and the inhibitory activity.

The target in the next assay is MMP-9 (Homo sapiens, UniProt P14780). As to the kind of experiment: MMP-9 inhibition (inhibitory profile). The conditions noted are these: Table 2. The assay is classed as biochemical. On the procedure: as §1
A further assay addresses MMP-13 (Homo sapiens, UniProt P45452). Description: MMP-13 inhibition (inhibitory profile). The assay is classed as biochemical. The conditions noted are these: Table 2. On the procedure:
as §1

For assay [3], the target named is T3, MMP-2 enzyme isolated from rat heart (Rattus norvegicus, UniProt P33436).
T3 construct: we used full-length, active MMP-2 enzymes isolated from healthy young adult rat hearts; from tissue; host or cells: rat heart homogenate (healthy young adult rats)
T3 sequence (P33436 110-662): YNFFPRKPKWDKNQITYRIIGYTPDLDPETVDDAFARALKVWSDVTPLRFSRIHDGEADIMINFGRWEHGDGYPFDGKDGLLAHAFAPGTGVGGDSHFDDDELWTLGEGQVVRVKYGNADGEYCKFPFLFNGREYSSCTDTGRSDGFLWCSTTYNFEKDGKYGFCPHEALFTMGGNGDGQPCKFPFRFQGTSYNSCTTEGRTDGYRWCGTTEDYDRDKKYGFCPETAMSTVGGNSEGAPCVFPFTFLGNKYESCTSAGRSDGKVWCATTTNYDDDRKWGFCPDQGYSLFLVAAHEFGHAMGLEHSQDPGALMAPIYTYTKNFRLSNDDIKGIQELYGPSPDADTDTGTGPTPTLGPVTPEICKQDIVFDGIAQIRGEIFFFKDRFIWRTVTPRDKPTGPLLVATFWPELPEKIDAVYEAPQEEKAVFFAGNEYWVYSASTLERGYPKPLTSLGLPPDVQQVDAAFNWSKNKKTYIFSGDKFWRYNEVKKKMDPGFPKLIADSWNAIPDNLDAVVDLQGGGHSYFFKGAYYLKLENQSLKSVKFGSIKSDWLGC
Description: Gelatin zymography on cardiac MMP-2. The assay is classed as biochemical. The conditions noted are these: for inhibition at 100 µM: cardiac MMP-2, gelatin zymography, read-out: Inhibition (%)±SEM at 100 μM final MMP inhibitor concentration; for EC50: concentration labelled EC50 in Supplementary Figure 4, doses calculated according to IC doses in vitro. On the procedure:
Gelatin zymography was performed as described previously (Kupai et al., [2010]; Bencsik et al., [2017]). MMP-2 was isolated from rat heart homogenates as follows: 50 μg protein/lane were loaded and separated by electrophoresis under non-reducing conditions on an 8% SDS-polyacrylamide gels copolymerized with 2 mg/ml gelatin from porcine skin (Sigma-Aldrich; St. Louis, MO). After electrophoresis, gels were washed in 2.5% Triton-X 100 with gentle agitation and then incubated for 20 h at 37°C in zymography development buffer (50 mM Tris-HCl, pH 7.5, containing 5 mM CaCl2, 200 mM NaCl) in the presence or abscence of the MMP inhibitor compounds. Zymographic gels were stained in a 0.05% Coomassie Brilliant Blue R-250 solution followed by destaining, and then zymograms were scanned. MMP activity was detected as a colorless transparent zone on a blue background and the clear bands in the gel were quantified by densitometry using the Quantity One software (Bio-Rad, Hercules, CA). The obtained density values were measured and percentage of inhibition values were then calculated.
To confirm the MTS screen results, we tested the potential MMP inhibitor molecules on MMP-2 enzyme isolated from rat heart in vitro. Therefore, we applied the MMPIs at 1 and 100 μM final concentration in the enzyme's development buffer (Table 3).
After the chemical optimization of the novel MMP inhibitor lead candidates, we determined their IC50 values by using gelatin zymography. During zymographic analysis, we used full-length, active MMP-2 enzymes isolated from healthy young adult rat hearts. Subsequently, the cardio-cytoprotective effects of the selected candidates having the lowest IC50 values to MMP-2 were tested in cultured neonatal cardiac myocytes subjected to simulated I/R injury. Cardiac myocyte cell culture assay allowed a relatively high throughput biological efficacy testing (Gorbe et al., [2010]) of the selected lead candidates in several dose ranges at different levels of inhibition of MMP-2 activity.

The next assay concerns MMP-2. The conditions noted are these: Figure 1, known MMP-2 inhibitors; cited from earlier work.
Assay [4] has as its target T2, MMP-1. To be noted: Figure 1, known MMP-2 inhibitors; cited from earlier work.
The mark [5] stands for this setting: Table 1, acids vs hydroxamic acids, catalytic fragment.

MMP-9, sequence (P14780 94-707, species assumed): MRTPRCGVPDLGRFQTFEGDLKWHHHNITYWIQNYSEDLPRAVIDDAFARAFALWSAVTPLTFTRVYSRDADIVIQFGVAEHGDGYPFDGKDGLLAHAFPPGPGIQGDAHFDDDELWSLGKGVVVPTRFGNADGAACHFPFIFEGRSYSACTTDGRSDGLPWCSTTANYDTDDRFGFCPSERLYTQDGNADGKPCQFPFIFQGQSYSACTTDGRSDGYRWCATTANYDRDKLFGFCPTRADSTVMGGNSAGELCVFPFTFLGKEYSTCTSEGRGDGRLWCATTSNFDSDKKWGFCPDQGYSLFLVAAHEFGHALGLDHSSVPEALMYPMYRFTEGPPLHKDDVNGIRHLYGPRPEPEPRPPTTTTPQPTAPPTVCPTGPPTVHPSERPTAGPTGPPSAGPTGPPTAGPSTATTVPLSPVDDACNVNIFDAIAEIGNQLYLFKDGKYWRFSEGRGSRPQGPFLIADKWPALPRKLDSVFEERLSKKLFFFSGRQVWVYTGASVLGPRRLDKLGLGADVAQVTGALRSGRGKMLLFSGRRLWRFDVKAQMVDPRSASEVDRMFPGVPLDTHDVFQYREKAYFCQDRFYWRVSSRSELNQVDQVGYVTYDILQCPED
T1 sequence (P08253 with tags, fused parts or gaps DEL222-396 limits assumed): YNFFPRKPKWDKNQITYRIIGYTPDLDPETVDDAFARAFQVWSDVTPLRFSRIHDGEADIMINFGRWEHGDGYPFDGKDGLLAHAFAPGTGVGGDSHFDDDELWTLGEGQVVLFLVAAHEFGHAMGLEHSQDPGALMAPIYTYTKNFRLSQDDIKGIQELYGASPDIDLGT

`O=C(O)c1csc(CN(Cc2ccc(F)cc2)Cc2ccc(-c3ccccc3)cc2)n1` [MMPI-1254]: the IC50 in assay [1] (Table 2) came out at 30 µM; on MMP-1 [2], 17 µM; against MMP-9, 20 µM; on MMP-13, 3 µM. In assay [3], the inhibition at 100 µM was found to be 100%. Further, the EC50 in assay [3] is 32 µM.
The compound `O=C(NO)c1csc(CN(Cc2cccc(Cl)c2)Cc2cccc(C(F)(F)F)c2)n1` [AMRI-102H] showed an IC50 in assay [1] (setting [5]) of 11 µM.
For the compound `O=C(O)c1csc(CN(Cc2ccc(F)cc2)Cc2ccc(OCc3ccncc3)cc2)n1` [MMPI-1248], the concentration for half-maximal inhibition (IC50) in assay [1] (Table 2) is 8 µM; against MMP-1 [2] it was 47 µM; at MMP-9 it was 8.8 µM; on MMP-13, 1.24 µM. Further, the inhibition at 100 µM in assay [3] is 100%. For the same compound, in assay [3], the concentration for a half-maximal effect (EC50) was 9 µM.
Turning to `O=C(NO)c1csc(CN(CCC(c2ccccc2)c2ccccc2)Cc2ccccc2F)n1` [AMRI-103H], the IC50 in assay [1] (setting [5]) was 17.6 µM.
As to `O=C(O)C(c1ccccc1)N(Cc1ccc(OCc2ccccc2)cc1)Cc1cccc(F)c1` (stereo not drawn) [MMPI-1140], the IC50 in assay [1] (Table 2) turned out to be 20 µM; on MMP-1 [2], 12 µM; at MMP-9, 39 µM; at MMP-13 it was 2.6 µM. Moreover, in assay [3], the inhibition at 100 µM was 81.1 ± 3.88%.
As for `O=C(O)c1csc(CN(Cc2ccc(F)cc2)Cc2ccc(OCc3cccnc3)cc2)n1` [MMPI-1260], the half-maximal inhibitory concentration (IC50) was found to be 5.7 µM in assay [1] (Table 2), 51 µM against MMP-1 [2], 37 µM against MMP-9 and 2.5 µM at MMP-13. Also, in assay [3], the inhibition at 100 µM was 100%. In addition, the EC50 in assay [3] was 17.7 µM.
In the case of `O=C(O)c1csc(CN(Cc2ccncc2)Cc2ccc(OCc3ccccc3)cc2)n1` [MMPI-1252], the IC50 in assay [1] (Table 2) was 54 µM; on MMP-1 [2] it was 115 µM; at MMP-9, no less than 500 µM; at MMP-13, 1.5 µM. Moreover, in assay [3], the inhibition at 100 µM is 100%.
Consider `Cc1ccc(CN(Cc2ccc(OCc3ccccc3)cc2)Cc2nc(C(=O)O)c[nH]2)cc1` [MMPI-1247], for which the IC50 in assay [1] (Table 2) turned out to be 15 µM; against MMP-1 [2] it was 33 µM; against MMP-9 it was 100 µM; at MMP-13, 3.3 µM. For the same compound, in assay [3], the inhibition at 100 µM worked out at 100%. Further, the EC50 in assay [3] is 16 µM.
For `O=C(O)c1csc(CN(Cc2ccc(OCc3ccccc3)cc2)C(c2ccccc2)c2ccccc2)n1` [MMPI-1155], the 50% inhibitory concentration (IC50) in assay [1] (Table 2) stood at 25 µM; against MMP-1 [2] it was 26 µM; at MMP-9, 10 µM; on MMP-13, 1.76 µM. Besides, the inhibition at 100 µM in assay [3] amounted to 47 ± 19.1%.
In assay [1] (setting [5]), `O=C(O)c1csc(CN(Cc2cccc(Cl)c2)Cc2cccc(C(F)(F)F)c2)n1` [AMRI-102A] had a half-maximal inhibitory concentration (IC50) of 6.2 µM.
With `O=C(O)c1csc(CN(CCC(c2ccccc2)c2ccccc2)Cc2ccccc2F)n1` [AMRI-103A], the IC50 in assay [1] (setting [5]) was 7.6 µM.
For the compound `O=C(O)c1csc(CN(Cc2ccc(OCc3ccccc3)cc2)Cc2cccnc2)n1` [MMPI-1253], the IC50 was 90 µM in assay [1] (Table 2), 240 µM on MMP-1 [2], no less than 500 µM on MMP-9 and 8 µM against MMP-13. Further, the inhibition at 100 µM in assay [3] turned out to be 100%.
Regarding `O=C(O)c1c[nH]c(CN(Cc2ccc(F)cc2)Cc2ccc(OC(c3ccccc3)c3ccccc3)cc2)n1` [MMPI-1245], the IC50 came out at 35 µM in assay [1] (Table 2), 16 µM at MMP-1 [2], 8 µM against MMP-9 and 0.28 µM against MMP-13. The inhibition at 100 µM in assay [3] was 100%.
Regarding `O=C(NO)c1csc(CN(Cc2ccc(F)cc2)Cc2ccc(OCc3ccccc3)cc2)n1` [AMRI-101H], inhibition in assay [1] (setting [5]) was half-maximal at 12 µM (IC50).
Consider `CC1(C)OCC(C(CS(=O)(=O)c2ccc(Oc3ccc(OC(F)(F)F)cc3)cc2)N(O)C=O)O1` (stereo not drawn) [ABT-518], for which the half-inhibitory concentration (IC50) was 0.0008 µM in the assay with MMP-2 and 8.9 µM at MMP-1 [4].
Regarding `O=C(O)c1csc(CN(Cc2ccc(OCc3ccccc3)cc2)Cc2cccc(F)c2)n1` [MMPI-1133], the IC50 was determined as 25 µM in assay [1] (Table 2), 6.8 µM against MMP-1 [2] and 4.7 µM against MMP-13. Also, in assay [3], the inhibition at 100 µM was determined as 11.1 ± 1.58%.
Consider `O=C(O)c1csc(CN(Cc2ccc(F)cc2)Cc2ccc(OCc3ccccc3)cc2)n1` [MMPI-1157], for which the half-maximal inhibitory concentration (IC50) in assay [1] (setting [5]) worked out at 3.4 µM; on MMP-9, 15 µM; against MMP-13, 1.6 µM. In addition, in assay [3], the inhibition at 100 µM is 100%. The EC50 in assay [3] was 18 µM.
Take `CC(C)C(NS(=O)(=O)c1ccc(-c2ccc(Br)cc2)cc1)C(=O)O` (stereo not drawn) [PD 166793]: the IC50 with MMP-2 is […].
